According to patent publication US9994547B2, “Heteroarylamide inhibitors of TBK1” (Takeda Pharmaceutical Company Limited, priority 2014, dated 2018):

target: Full length human TBK1 (Homo sapiens (Human), UniProt Q9UHD2); experiment: Inhibition of TBK1 Enzyme (Example A); type: biochemical; conditions: -log(IC50), IC50 molar; 3 nM TBK1, 25 μM ATP, 60 min RT
Method: Full length human TBK1 with an N-terminal His-tag was cloned into the pFastBacl vector and was transfected into Sf9 cells. 72 hours later the virus was harvested and amplified through two additional rounds of infections. Then 400 mL of the resulting virus stock was used to infect 10 L of Sf9 cells at a density of 2×10^6 cells/mL. Cell pellets were harvested 48 hours post infection and were lysed by freeze-thaw, homogenization and sonication in binding buffer (25 mM Tris pH7.6, 1 M NaCl, 10 mM imidazole, 0.5 mM TCEP) plus 0.1% Triton X-100 and complete protease inhibitor cocktail. The lysate was spun and the supernatant was purified with a HisTrap FF crude and a Superdex 200 pg column.
TBK1 inhibition is determined using a 384 well plate format in buffer containing 20 mM Hepes, pH 7.4, 10 mM MgCl2, 1 mM EDTA, 0.01% Brij-L23, 1 mM DTT. Each test compound is prepared in DMSO using 2.5-fold serial dilutions for 11 data points, which are added to the buffer so that each dilution contains 1% DMSO. To each well is added 2 μL of 1 μM 5FAM-DRHDSGLDSMKDE-NH2 (in buffer), 2 μL of diluted test compound (1% DMSO in buffer), and 5 μL of 3 nM TBK1 and 25 μM ATP (in buffer). The reaction mixture is incubated at RT for 60 min, and quenched by adding 20 mM Hepes, pH 7.4, 10 mM MgCl2, 1 mM EDTA, 0.01% Brij-L23, 1 mM DTT+25 mM EDTA. To quantify the fluorescent-labeled substrate and product following reaction, the test plate is loaded on a Caliper LC-3000, which measures percent of conversion by microfluidic-based separation. Corresponding IC50 values are calculated by non-linear curve fitting of the compound concentrations and percent of inhibition to the standard IC50 equation and reported as pIC50, i.e., −log(IC50), where IC50 is the molar concentration.

Full length human TBK1, sequence (Q9UHD2 whole entry): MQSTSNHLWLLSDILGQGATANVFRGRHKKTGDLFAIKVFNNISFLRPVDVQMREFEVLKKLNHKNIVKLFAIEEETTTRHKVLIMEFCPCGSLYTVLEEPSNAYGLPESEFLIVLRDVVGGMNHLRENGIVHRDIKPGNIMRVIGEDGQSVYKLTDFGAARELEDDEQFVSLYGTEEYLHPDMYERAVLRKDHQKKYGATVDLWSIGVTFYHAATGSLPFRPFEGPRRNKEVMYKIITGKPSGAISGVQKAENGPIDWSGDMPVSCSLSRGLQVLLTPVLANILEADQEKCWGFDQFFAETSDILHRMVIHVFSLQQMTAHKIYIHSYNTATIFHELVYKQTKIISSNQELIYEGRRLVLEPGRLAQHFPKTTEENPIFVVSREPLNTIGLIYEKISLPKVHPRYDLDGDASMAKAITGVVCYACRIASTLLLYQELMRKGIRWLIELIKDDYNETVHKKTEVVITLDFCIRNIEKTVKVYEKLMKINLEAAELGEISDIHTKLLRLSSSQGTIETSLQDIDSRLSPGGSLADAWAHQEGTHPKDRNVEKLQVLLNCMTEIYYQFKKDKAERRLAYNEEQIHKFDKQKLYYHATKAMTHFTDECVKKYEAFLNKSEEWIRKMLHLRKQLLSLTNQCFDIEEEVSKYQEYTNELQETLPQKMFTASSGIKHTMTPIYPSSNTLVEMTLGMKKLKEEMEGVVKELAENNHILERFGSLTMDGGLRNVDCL

Row | Structure (SMILES) | TBK1 Inhibition (pIC50)
1 | CC[C@H](Nc1cc(-c2cnc(NC(=O)C3CC3)cn2)ccc1C#N)C(=O)N(C)C [Example 23, (S)-N-(5-(4-cyano-3-((1-(dimethylamino)-1-oxobutan-2-yl)amino)phenyl)pyrazin-2-yl)cyclopropanecarboxamide] | 7.7
2 | C[C@H](Nc1cc(-c2cnc(NC(=O)[C@@H]3C[C@H]3C)cn2)cnc1C#N)C(=O)N(C)C [Example 107, (1R,2R)-N-(5-(6-cyano-5-(((S)-1-(dimethylamino)-1-oxopropan-2-yl)amino)pyridin-3-yl)pyrazin-2-yl)-2-methylcyclopropanecarboxamide] | 7.8
3 | C[C@H](Nc1cc(-c2cnc(NC(=O)C3CC3)cn2)cnc1C#N)C(=O)NCC(F)F [Example 114, (S)-N-(5-(6-cyano-5-((1-((2,2-difluoroethyl)amino)-1-oxopropan-2-yl)amino)pyridin-3-yl)pyrazin-2-yl)cyclopropanecarboxamide] | 7.7
4 | CN(C)C(=O)[C@H](CO)Nc1cc(-c2cnc(NC(=O)C3CC3)cn2)ccc1C#N [Example 136, (S)-N-(5-(4-cyano-3-((1-(dimethylamino)-3-hydroxy-1-oxopropan-2-yl)amino)phenyl)pyrazin-2-yl)cyclopropanecarboxamide] | 7.6
5 | CN(CC#N)C(=O)CNc1cc(-c2cnc(NC(=O)C3CC3)cn2)cnc1C#N [Example 49, N-(5-(6-cyano-5-((2-((cyanomethyl)(methyl)amino)-2-oxoethyl)amino)pyridin-3-yl)pyrazin-2-yl)cyclopropanecarboxamide] | 7.2
6 | CC1CC1C(=O)Nc1cnc(-c2cnc(C#N)c(NCC(=O)N(C)C)c2)cn1 (stereo not drawn) [Example 145, N-(5-(6-cyano-5-((2-(dimethylamino)-2-oxoethyl)amino)pyridin-3-yl)pyrazin-2-yl)-2-methylcyclopropanecarboxamide] | 7.1
7 | C[C@H](O)[C@H](Nc1cc(-c2cnc(NC(=O)C3CC3)cn2)cnc1C#N)C(=O)N(C)C [Example 39, N-(5-(6-cyano-5-(((2S,3S)-1-(dimethylamino)-3-hydroxy-1-oxobutan-2-yl)amino)pyridin-3-yl)pyrazin-2-yl)cyclopropanecarboxamide] | 7.0
8 | C[C@H](Nc1cc(-c2cnc(NC(=O)C3CC3)cn2)cnc1C#N)C(=O)N1CCOC[C@@H]1C#N [Example 81, N-(5-(6-cyano-5-(((S)-1-((S)-3-cyanomorpholino)-1-oxopropan-2-yl)amino)pyridin-3-yl)pyrazin-2-yl)cyclopropanecarboxamide] | 7.8
9 | CC(NC(=O)[C@H](C)Nc1cc(-c2cnc(NC(=O)C3CC3)cn2)cnc1C#N)C(F)F (stereo partly drawn) [Example 119, N-(5-(6-cyano-5-(((2S)-1-((1,1-difluoropropan-2-yl)amino)-1-oxopropan-2-yl)amino)pyridin-3-yl)pyrazin-2-yl)cyclopropanecarboxamide] | 8.1
10 | CC1CN(C(=O)CNc2cc(-c3cnc(NC(=O)C4CC4)cn3)cnc2C#N)CCO1 (stereo not drawn) [Example 103, N-(5-(6-cyano-5-((2-(2-methylmorpholino)-2-oxoethyl)amino)pyridin-3-yl)pyrazin-2-yl)cyclopropanecarboxamide] | 6.8
11 | C[C@H](Nc1cc(-c2cnc(NC(=O)C3CC3)cn2)cc(F)c1C#N)C(=O)N(C)C [Example 137, (S)-N-(5-(4-cyano-3-((1-(dimethylamino)-1-oxopropan-2-yl)amino)-5-fluorophenyl)pyrazin-2-yl)cyclopropanecarboxamide] | 7.6
12 | N#Cc1ncc(-c2cnc(NC(=O)C3CC3)cn2)cc1NCC(N)=O [Example 121, N-(5-(5-((2-amino-2-oxoethyl)amino)-6-cyanopyridin-3-yl)pyrazin-2-yl)cyclopropanecarboxamide] | 5.6
13 | CCN(C)C(=O)CNc1cc(-c2cnc(NC(=O)C3CC3)cn2)ccc1C#N [Example 20, N-(5-(4-cyano-3-((2-(ethyl(methyl)amino)-2-oxoethyl)amino)phenyl)pyrazin-2-yl)cyclopropanecarboxamide] | 7.4
14 | C[C@H](Nc1cc(-c2cnc(NC(=O)C3CC3)cn2)ccc1C#N)C(=O)N(C)CCO [Example 19, (S)-N-(5-(4-cyano-3-((1-((2-hydroxyethyl)(methyl)amino)-1-oxopropan-2-yl)amino)phenyl)pyrazin-2-yl)cyclopropanecarboxamide] | 7.7
15 | CC(O)CN(C)C(=O)CNc1cc(-c2cnc(NC(=O)C3CC3)cn2)ccc1C#N (stereo not drawn) [Example 134, N-(5-(4-cyano-3-((2-((2-hydroxypropyl)(methyl)amino)-2-oxoethyl)amino)phenyl)pyrazin-2-yl)cyclopropanecarboxamide] | 6.9
16 | N#Cc1ccc(-c2cnc(NC(=O)C3CC3)cn2)cc1NCC(=O)N1CCCC1 [Example 125, N-(5-(4-cyano-3-((2-oxo-2-(pyrrolidin-1-yl)ethyl)amino)phenyl)pyrazin-2-yl)cyclopropanecarboxamide] | 7.3
17 | CC(C)(O)CN(CC(F)(F)F)C(=O)CNc1cc(-c2cnc(NC(=O)C3CC3)cn2)cnc1C#N [Example 111, N-(5-(6-cyano-5-((2-((2-hydroxy-2-methylpropyl)(2,2,2-trifluoroethyl)amino)-2-oxoethyl)amino)pyridin-3-yl)pyrazin-2-yl)cyclopropanecarboxamide] | 6.6
18 | CCC(Nc1cc(-c2cnc(NC(=O)C3CC3)cn2)cnc1C#N)C(=O)N(C)C1CC1 (stereo not drawn) [Example 36, N-(5-(6-cyano-5-((1-(cyclopropyl(methyl)amino)-1-oxobutan-2-yl)amino)pyridin-3-yl)pyrazin-2-yl)cyclopropanecarboxamide] | 7.3
19 | N#Cc1ncc(-c2cnc(NC(=O)C3CC3)cn2)cc1NCC(=O)N1CC2(COC2)C1 [Example 104, N-(5-(6-cyano-5-((2-oxo-2-(2-oxa-6-azaspiro[3.3]heptan-6-yl)ethyl)amino)pyridin-3-yl)pyrazin-2-yl)cyclopropanecarboxamide] | 5.4
20 | C[C@H](Nc1cc(-c2cnc(NC(=O)C3CC3)cn2)cnc1C#N)C(=O)N(C)CC1CC1 [Example 73, (S)-N-(5-(6-cyano-5-((1-((cyclopropylmethyl)(methyl)amino)-1-oxopropan-2-yl)amino)pyridin-3-yl)pyrazin-2-yl)cyclopropanecarboxamide] | 7.0
21 | CN(C)C(=O)[C@@H](CC(F)F)Nc1cc(-c2cnc(NC(=O)C3CC3)cn2)ccc1C#N [Example 33, (R)-N-(5-(4-cyano-3-((1-(dimethylamino)-4,4-difluoro-1-oxobutan-2-yl)amino)phenyl)pyrazin-2-yl)cyclopropanecarboxamide] | 5.9
22 | C[C@H](Nc1cc(-c2cnc(NC(=O)C3CC3)cn2)cnc1C#N)C(=O)N1CC[C@H](F)C1 [Example 139, N-(5-(6-cyano-5-(((S)-1-((S)-3-fluoropyrrolidin-1-yl)-1-oxopropan-2-yl)amino)pyridin-3-yl)pyrazin-2-yl)cyclopropanecarboxamide] | 7.7
23 | C[C@H](Nc1cc(-c2cnc(NC(=O)C3CC3)cn2)cnc1C#N)C(=O)N(CCO)CC(F)F [Example 79, (S)-N-(5-(6-cyano-5-((1-((2,2-difluoroethyl)(2-hydroxyethyl)amino)-1-oxopropan-2-yl)amino)pyridin-3-yl)pyrazin-2-yl)cyclopropanecarboxamide] | 6.8
24 | N#Cc1ncc(-c2cnc(NC(=O)C3CC3)cn2)cc1NCC(=O)N1CCCC1CF (stereo not drawn) [Example 143, N-(5-(6-cyano-5-((2-(2-(fluoromethyl)pyrrolidin-1-yl)-2-oxoethyl)amino)pyridin-3-yl)pyrazin-2-yl)cyclopropanecarboxamide] | 7.0
25 | CN(C)C(=O)CNc1cc(-c2cnc(NC(=O)C3CC3)cn2)cnc1C#N [Example 122, N-(5-(6-cyano-5-((2-(dimethylamino)-2-oxoethyl)amino)pyridin-3-yl)pyrazin-2-yl)cyclopropanecarboxamide] | 7.0

same assay, conditions: -log(IC50), IC50 molar; 3 nM TBK1, 25 μM ATP, 60 min RT; read-out: TBK1 Inhibition (pIC50) (converted)

Row | Structure (SMILES) | IC50 [nM]
26 | N#Cc1ncc(-c2cnc(NC(=O)C3CC3)cn2)cc1NCC(=O)N1CCOC[C@@H]1C(F)(F)F [Example 101, (R)-N-(5-(6-cyano-5-((2-oxo-2-(3-(trifluoromethyl)morpholino)ethyl)amino)pyridin-3-yl)pyrazin-2-yl)cyclopropanecarboxamide] | 200
27 | N#Cc1ncc(-c2cnc(NC(=O)C3CC3)cn2)cc1NCC(=O)N1CCO[C@@H]1C(F)(F)F [Example 95, (R)-N-(5-(6-cyano-5-((2-oxo-2-(2-(trifluoromethyl)oxazolidin-3-yl)ethyl)amino)pyridin-3-yl)pyrazin-2-yl)cyclopropanecarboxamide] | 631
